Columns and labels:
[1] = target: T1, PSMA-expressing LS174T cells (LS174T-PSMA) (Homo sapiens, UniProt Q04609); assay: Binding and internalization assay with 111In-labeled ligands; format: cell-based; settings: 2 h 37 °C
T1 construct: expressed in transfected cells; host or cells: LS174T colon carcinoma cells (human), stably transfected with pcDNA3.1-hPSMA
Procedure: Cell lines were purchased from the American Type Culture Collection. LS174T colon carcinoma cells were stably transfected with human PSMA using the plasmid pcDNA3.1-hPSMA and cultured in RPMI 1640 medium supplemented with 2 mM glutamine, 10% FCS, and 0.3 mg/ml G418 at 37 °C in a humidified atmosphere with 5% CO2 [5].
Binding and internalization characteristics of all ligands were compared using LS174T-PSMA and wildtype LS174T cells. Cells were cultured to confluency in 6-wells plates followed by incubation at 37 °C for 2 h in 1 ml binding buffer (RPMI/0.5% BSA) with 50,000 counts per minute (cpm) of ^111In-labeled ligand (0.1-0.25 pmol/well). Nonspecific binding was determined by coincubation with 2-(phosphonomethyl)pentane-1,5-dioic acid (2-PMPA, 21.57 µM). PSMA-specific binding was defined as nonspecific binding subtracted from total binding. To retrieve the membrane-bound fraction, cells were washed with PBS twice and incubated with acid buffer (0.1 M acetic acid, 154 mM NaCl, pH 2.6) for 10 minutes at 0 °C. After incubation, the membrane bound fraction (in acid buffer) was collected, cells were washed, lysed with 0.1 M NaOH and cell lysis (intercellular activity) was collected. Membrane-bound activity and intercellular activity fractions were measured in a gamma-counter (2480 WIZARD^2 Automatic Gamma Counter, PerkinElmer), [25]. Human serum was used to determine the in vitro serum stability of the multimodal ligands (0.8 µg/ml serum, 5 MBq/μg labeling). After incubation for 2 h at 37°C, serum proteins were precipitated by adding a 1:1 (v/v) volume of acetonitrile followed by 5 min of centrifugation at 3220×g. Stability was evaluated by RP-HPLC analysis after 2 h of incubation at 37 °C. […] Experimental details are described in the supplementary materials and methods.

[2] = Lipophilicity, PBS/n-octanol; format: physicochemical; settings: radiolabeled ligand
Procedure: Tubes were vortexed vigorously for 1 min and centrifuged for 5 min at 201×g for phase separation. The concentration of radioactivity in a defined volume of each layer was measured in a well-type gamma-counter.

[3] = system: LS174T-PSMA and LS174T xenografts; assay: Biodistribution of 111In-labeled multimodal ligands; format: in vivo, BALB/c nude mice; settings: 0.3 nmol, 2 h p.i.
Procedure: Animal experiments were performed in 8-10 weeks old male BALB/c nude mice (Janvier). Animals were housed in individually ventilated cages (Blue line IVC, 4-5 mice per cage) under nonsterile standard conditions with cage enrichment present and free access to chlorophyll-free animal chow (Sniff GmbH) and water. Mice were subcutaneously inoculated with 3.0 x 10^6 LS174T-PSMA cells in the left flank and 1.5 × 10^6 LS174T cells in the right flank, diluted in 200 μL of complete RPMI 1640 medium. Eleven days after tumor cell inoculation when xenografts were approximately 0.1 cm^3, tracers were injected intravenously via the tail vein. The researchers were not blinded for the experimental groups and tumor-bearing mice were block-randomized into groups based on tumor size. All experiments were approved by the institutional Animal Welfare Committee of the Radboud university medical center and were conducted in accordance to the guidelines of the Revised Dutch Act on Animal Experimentation.
Mice were injected intravenously with 10 MBq ^111In-labeled PSMA ligands (0.3 nmol, molar activity 33.3 MBq/nmol) in PBS/0.5% BSA. Two hours post injection, mice were euthanized by CO2/O2-asphyxation and images were acquired with the IVIS fluorescence imaging system (Xenogen VivoVision IVIS Lumina II, Caliper Life Sciences), using an acquisition time of 10 s. Subsequently, µSPECT/CT images were acquired (U-SPECT II, MILabs) with a 1.0 mm diameter pinhole mouse collimator tube [26]. Mice were scanned for 30 min followed by a CT scan (spatial resolution 160 μm, 65 kV, 615 μA) for anatomical reference. µSPECT/CT scans were reconstructed with MILabs reconstruction software, using an ordered-subset expectation maximization algorithm, energy windows 154 - 188 keV and 220-270 keV, 3 iterations, 16 subsets, voxel size of 0.4 mm. SPECT/CT scans were analyzed and maximum intensity projections (MIPs) were created using the Inveon Research Workplace software version 4.1 (Siemens Preclinical Solutions). NIRF images were analyzed using Living Image software version 4.2 (Caliper Life Sciences). Tissues of interest were dissected, weighed and measured for radioactivity in a gamma-counter as described above. In the fluorescence-guided surgery feasibility study, pre-operative imaging was performed to visualize tumor tissue. After white light resection, NIRF imaging was repeated to assess if any remaining tumor was present.

T1 sequence (Q04609 whole entry): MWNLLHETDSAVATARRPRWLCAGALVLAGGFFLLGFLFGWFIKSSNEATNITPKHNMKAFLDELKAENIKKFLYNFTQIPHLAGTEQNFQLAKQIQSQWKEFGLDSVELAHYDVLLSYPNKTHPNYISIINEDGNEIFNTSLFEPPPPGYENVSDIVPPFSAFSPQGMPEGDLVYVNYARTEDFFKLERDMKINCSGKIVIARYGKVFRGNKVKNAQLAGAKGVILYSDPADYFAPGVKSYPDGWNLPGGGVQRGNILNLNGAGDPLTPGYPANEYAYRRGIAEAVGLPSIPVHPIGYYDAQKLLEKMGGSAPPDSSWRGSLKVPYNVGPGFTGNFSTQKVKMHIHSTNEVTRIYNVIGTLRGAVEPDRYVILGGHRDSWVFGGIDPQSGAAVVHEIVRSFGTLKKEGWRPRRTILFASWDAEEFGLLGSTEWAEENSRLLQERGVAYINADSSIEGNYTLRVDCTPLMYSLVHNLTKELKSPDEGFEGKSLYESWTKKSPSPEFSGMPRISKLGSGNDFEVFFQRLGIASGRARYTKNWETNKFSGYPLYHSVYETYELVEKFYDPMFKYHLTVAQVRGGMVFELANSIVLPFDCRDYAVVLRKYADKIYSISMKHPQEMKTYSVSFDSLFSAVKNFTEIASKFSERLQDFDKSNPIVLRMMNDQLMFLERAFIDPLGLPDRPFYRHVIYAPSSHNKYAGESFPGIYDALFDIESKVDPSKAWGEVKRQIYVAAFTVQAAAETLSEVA

Row | SMILES | Internalized fraction [1] | Membrane bound fraction [1] | LogD [2] | Adrenals [3] [%ID/g] | Blood [3] [%ID/g] | Bone [3] [%ID/g] | Bone marrow [3] [%ID/g] | Duodenum [3] [%ID/g] | Heart [3] [%ID/g] | Kidney [3] [%ID/g] | Liver [3] [%ID/g] | Lung [3] [%ID/g] | Muscle [3] [%ID/g] | Pancreas [3] [%ID/g] | Prostate [3] [%ID/g] | Salivary glands [3] [%ID/g] | Spleen [3] [%ID/g] | Stomach [3] [%ID/g] | Tumor- LS174T [3] [%ID/g] | Tumor/Blood ratio [3] | other results
1 | C[Si](C)(CCC[N+](CCCS(=O)(=O)O)(CCCS(=O)(=O)O)CCCS(=O)(=O)O)O[Si-2]123(O[Si](C)(C)CCC[N+](CCCS(=O)(=O)O)(CCCS(=O)(=O)O)CCCS(=O)(=O)O)n4c5c6ccccc6c4N=C4c6cccc(OCCCOC(=O)NCCCCCC(=O)NCCCC[C@H](NC(=O)CCC(C(=O)O)N7CCN(CC(=O)O)CCN(CC(=O)O)CCN(CC(=O)O)CC7)C(=O)N[C@H](Cc7ccccc7)C(=O)NCCCCCC(=O)NCCCC[C@H](NC(=O)N[C@@H](CCC(=O)O)C(=O)O)C(=O)O)c6C(=[N+]41)N=c1c4ccccc4c(n12)=NC1=[N+]3C(=N5)c2ccccc21.[Na+].[Na+].[Na+].[Na+] (stereo partly drawn) [N046] | 2.0 ± 0.39 | 0.8 ± 0.06 | -2.4 ± 0.03 | 1.2 | 0.7 | 0.4 | 0.2 | 0.3 | 0.3 | 31.9 | 0.8 | 0.4 | 0.2 | 0.2 | 0.9 | 0.4 | 1.1 | 0.3 | 0.4 | 14.9 | Tumor+ LS174T-PSMA [3]: 4.3 %ID/g; Tumor/Kidney ratio [3]: 0.2; Tumor/Liver ratio [3]: 6.1; Tumor/Muscle ratio [3]: 39.3; Tumor/Negative tumor ratio [3]: 10.8; Tumor/Prostate ratio [3]: 10.7; Tumor/Salivary gland ratio [3]: 12.5; Tumor/Spleen ratio [3]: 4.4 ± 1
2 | C[Si](C)(CCC[N+](CCCS(=O)(=O)O)(CCCS(=O)(=O)O)CCCS(=O)(=O)O)O[Si-2]123(O[Si](C)(C)CCC[N+](CCCS(=O)(=O)O)(CCCS(=O)(=O)O)CCCS(=O)(=O)O)n4c5c6ccccc6c4N=C4c6cccc(OCCCOC(=O)NCCCCCC(=O)NCCCC[C@H](NC(=O)[C@H](CCC(=O)O)NC(=O)CN7CCN(CC(=O)O)CCN(CC(=O)O)CCN(CC(=O)O)CC7)C(=O)N[C@H](Cc7ccccc7)C(=O)N[C@@H](CCC(=O)O)C(=O)N[C@@H](CCC(=O)O)C(=O)NCCCCCC(=O)NCCCC[C@H](NC(=O)N[C@@H](CCC(=O)O)C(=O)O)C(=O)O)c6C(=[N+]41)N=c1c4ccccc4c(n12)=NC1=[N+]3C(=N5)c2ccccc21.[Na+].[Na+].[Na+].[Na+] [N122] | 1.4 ± 0.20 | 0.6 ± 0.01 | -2.8 ± 0.06 | 1.7 | 0.6 | 0.7 | 0.4 | 0.4 | 0.5 | 72.5 | 1 ± 0.2 | 1 ± 0.3 | 0.2 | 0.3 | 0.4 | 0.5 | 1.6 | 0.4 | 0.5 | 13.9 | Tumor+ LS174T-PSMA [3]: 7.6 %ID/g; Tumor/Kidney ratio [3]: 0.2; Tumor/Liver ratio [3]: 8.1; Tumor/Muscle ratio [3]: 48.4; Tumor/Negative tumor ratio [3]: 17.8; Tumor/Prostate ratio [3]: 21.5; Tumor/Salivary gland ratio [3]: 18.6; Tumor/Spleen ratio [3]: 5.2
3 | C[Si](C)(CCC[N+](CCCS(=O)(=O)O)(CCCS(=O)(=O)O)CCCS(=O)(=O)O)O[Si-2]123(O[Si](C)(C)CCC[N+](CCCS(=O)(=O)O)(CCCS(=O)(=O)O)CCCS(=O)(=O)O)n4c5c6ccccc6c4N=C4c6cccc(OCCCOC(=O)NCCCCCC(=O)NCCCC[C@H](NC(=O)CCC(C(=O)O)N7CCN(CC(=O)O)CCN(CC(=O)O)CCN(CC(=O)O)CC7)C(=O)N[C@@H](CCC(=O)O)C(=O)N[C@@H](CCC(=O)O)C(=O)N[C@@H](CCC(=O)O)C(=O)NCCCCCC(=O)NCCCC[C@H](NC(=O)N[C@@H](CCC(=O)O)C(=O)O)C(=O)O)c6C(=[N+]41)N=c1c4ccccc4c(n12)=NC1=[N+]3C(=N5)c2ccccc21.[Na+].[Na+].[Na+].[Na+] (stereo partly drawn) [N143] | 3.6 ± 0.22 | 0.5 ± 0.20 | -2.4 ± 0.10 | 2.5 | 0.3 | 1.2 | 0.4 | 0.6 | 0.5 | 112.8 | 1 ± 0.2 | 0.7 | 0.3 | 0.4 | 1.4 | 0.6 | 3.1 ± 1 | 0.5 | 0.5 | 56 | Tumor/Kidney ratio [3]: 0.2; Tumor/Liver ratio [3]: 15.2; Tumor/Muscle ratio [3]: 72.3; Tumor/Negative tumor ratio [3]: 36.7; Tumor/Prostate ratio [3]: 32.9; Tumor/Salivary gland ratio [3]: 28.8; Tumor/Spleen ratio [3]: 5.2
4 | C[Si](C)(CCC[N+](CCCS(=O)(=O)O)(CCCS(=O)(=O)O)CCCS(=O)(=O)O)O[Si-2]123(O[Si](C)(C)CCC[N+](CCCS(=O)(=O)O)(CCCS(=O)(=O)O)CCCS(=O)(=O)O)n4c5c6ccccc6c4N=C4c6cccc(OCCCOC(=O)NCCCCCC(=O)NCCCC[C@H](NC(=O)CCC(C(=O)O)N7CCN(CC(=O)O)CCN(CC(=O)O)CCN(CC(=O)O)CC7)C(=O)N[C@@H](CCC(=O)O)C(=O)N[C@@H](CCC(=O)O)C(=O)NCCCCCC(=O)NCCCC[C@H](NC(=O)N[C@@H](CCC(=O)O)C(=O)O)C(=O)O)c6C(=[N+]41)N=c1c4ccccc4c(n12)=NC1=[N+]3C(=N5)c2ccccc21.[Na+].[Na+].[Na+].[Na+] (stereo partly drawn) [N144] | 2.5 ± 0.05 | 0.3 ± 0.03 | -2.4 ± 0.01 | 1.3 | 0.2 | 0.5 | 0.3 | 0.3 | 0.3 | 70.3 | 0.6 | 0.4 | 0.2 | 0.2 | 0.5 | 0.4 | 1.1 | 0.3 | 0.5 | 71.9 | Tumor+ LS174T-PSMA [3]: 11.7 %ID/g; Tumor/Kidney ratio [3]: 0.2; Tumor/Liver ratio [3]: 21.3; Tumor/Muscle ratio [3]: 110; Tumor/Negative tumor ratio [3]: 28.8; Tumor/Prostate ratio [3]: 32; Tumor/Salivary gland ratio [3]: 30.3; Tumor/Spleen ratio [3]: 12.3

From article PMC7778589, “Photosensitizer-based multimodal PSMA-targeting ligands for intraoperative detection of prostate cancer” (Theranostics, 2021)
